Laboratory results from patent US20150148311A1, “NON-SYSTEMIC TGR5 AGONISTS” (Ardelyx, Inc., priority 2011, published 2015).

Target: T1, human TGR5 (Homo sapiens, UniProt Q8TDU6)
T1 construct: expressed in transfected cells
T1 sequence (Q8TDU6 1-330): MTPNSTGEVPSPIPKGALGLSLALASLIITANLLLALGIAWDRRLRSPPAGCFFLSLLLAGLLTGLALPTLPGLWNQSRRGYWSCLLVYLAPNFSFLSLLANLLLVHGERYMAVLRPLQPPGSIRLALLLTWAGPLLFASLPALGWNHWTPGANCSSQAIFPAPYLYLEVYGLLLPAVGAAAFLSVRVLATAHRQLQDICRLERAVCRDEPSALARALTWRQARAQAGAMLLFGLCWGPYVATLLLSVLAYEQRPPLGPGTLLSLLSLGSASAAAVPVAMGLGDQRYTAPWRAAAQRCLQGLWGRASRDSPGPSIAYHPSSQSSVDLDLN
Assay: Cell-based TGR5 assay, HEK293 cells stably expressing human TGR5, cAMP by HTRF
Details: HEK293 cells stably expressing human TGR5, 30 min at 37 C, 0.05 nM to 10 μM, read-out: pEC50 Human TGR5 (converted)
Procedure: Two primary cell based screens were performed. The first utilized HEK293 cells stably transfected to heterologously express human TGR5. The second screen used the human caecum carcinoma cell line NCI-H716 which endogenously expresses human TGR5. In both assays, cells are treated with candidate TGR5 activators and assessed for the increased intercellular levels of cAMP.
HEK293 cells were transfected with a vector that expresses a gene encoding human TGR5, and a stable cell line was isolated using drug selection following standard techniques. Cells were grown overnight at 37° C./5% CO2 prior to assay.
TGR5-mediated cAMP generation was measured using a homogeneous time resolved fluorescence (HTRF) detection method (Cisbio). Test compounds were dissolved in DMSO to a final concentration of 10 mM. Serial 3-fold dilutions of the stock solution were made in DMSO, and these solutions were diluted 100-fold into Hanks Balanced Salt Solution supplemented with 10 mM HEPES pH 7.4 and 0.5 mM isobutyl methylxanthine (IBMX). Prior to assay, culture medium was replaced with fresh medium, and test compounds diluted in HBSS/HEPES/IBMX were added to the cells and incubated at 37° C. for 30 minutes.
Following incubation with test compounds, cAMP was detected through the successive addition of cAMP labeled with the modified allophyocyanin dye d2 (cAMP-d2) and cryptate-labeled anti-cAMP in lysis buffer, and reading HTRF per the manufacturer's instructions. A standard curve was used to convert the raw HTRF data into [cAMP].

Row | EC50 [nM] | SMILES
1 | 126 to 1000 | CN(C[C@H](O)[C@@H](O)[C@H](O)[C@H](O)CO)C(=O)c1cc(NCCCCCc2cc(Cl)c(CN3CSC[C@H]3C(=O)N3CCN(C4CC4)c4ccccc43)cc2Cl)nc(N(C)CCO)n1 [Example 224]
2 | 126 to 1000 | COC(=O)c1cc(NCCCCCc2cc(Cl)c(CN3CSC[C@H]3C(=O)N3CCN(C4CC4)c4ccccc43)cc2Cl)nc(N(C)C[C@H](O)[C@@H](O)[C@H](O)[C@H](O)CO)n1 [Example 223]
3 | 126 to 1000 | O=C(N1CCN(C2CC2)c2ccccc21)C1(NCc2cc(I)ccc2C(F)(F)F)CC1 [Example 164, (4-cyclopropyl-3,4-dihydroquinoxalin-1(2H)-yl)(1-(5-iodo-2-(trifluoromethyl)benzylamino)cyclopropyl)methanone]
4 | < 100 | N=C(N)NCCCCCc1cc(Cl)c(CN2CSC[C@H]2C(=O)N2CCN(C3CC3)c3ccccc32)cc1Cl [Example 181, (R)-(3-(4-(5-guanidinylpentyl)-2,5-dichlorobenzyl)thiazolidin-4-yl)(4-cyclopropyl-3,4-dihydroquinoxalin-1(2H)-yl)methanone]
5 | 126 to 1000 | CN(C)c1nc(NCCCCCc2cc(Cl)c(CN3CSC[C@H]3C(=O)N3CCN(C4CC4)c4ccccc43)cc2Cl)nc(NC(CO)(CO)CO)n1 [Example 200]
6 | 126 to 1000 | O=C(CCCCc1cc(Cl)c(CN2C[S+]([O-])C[C@H]2C(=O)N2CCN(C3CC3)c3ccccc32)cc1Cl)NC[C@H](O)[C@@H](O)[C@H](O)[C@H](O)CO (some centres unmarked) [Example 221]

The next lines start with the compound.

Row | SMILES | EC50 [nM]
7 | C[C@@H](NC(=O)[C@@H](C)NC(=O)[C@@H](C)NC(=O)c1ccc(COc2cc(Cl)c(CN3CSC[C@H]3C(=O)N3CCN(C4CC4)c4ccccc43)cc2Cl)cc1)C(=O)O [Example 207] | 126 to 1000
8 | O=C(CCCCc1ccc(C(F)(F)F)c(CN2CSC[C@H]2C(=O)N2CCN(C3CC3)c3ccccc32)c1)NC[C@H](O)[C@@H](O)[C@H](O)[C@H](O)CO [Example 271] | 1260 to 50100
9 | O=C(N1CCN(C2CC2)c2ccccc21)C1(NCc2c(Cl)ccc(Cl)c2O)CC1 [Example 168, (4-cyclopropyl-3,4-dihydroquinoxalin-1(2H)-yl)(1-((3,6-dichloro-2-hydroxybenzyl)amino)cyclopropyl)methanone] | 126 to 1000
10 | CN(C(=O)[C@@H]1CSCN1Cc1cc(Cl)ccc1Cl)c1ccccc1OC1CCC1 [Example 290] | 126 to 1000
11 | O=C(O)CN1CCN(C(=O)NCCCCCc2cc(Cl)c(CN3CSC[C@H]3C(=O)N3CCN(C4CC4)c4ccccc43)cc2Cl)CC1 [Example 281] | < 100
12 | O=C(NC[C@H](O)[C@@H](O)[C@H](O)[C@H](O)CO)c1ccc(CCc2cc(Cl)c(CN3CSC[C@H]3C(=O)N3CCN(C4CC4)c4ccccc43)cc2Cl)cn1 [Example 202] | 126 to 1000
13 | CN(C[C@H](O)[C@@H](O)[C@H](O)[C@H](O)CO)C(=O)CCCCc1ccc(Cl)c(CNC2(C(=O)N3CCN(C4CC4)c4ccccc43)CC2)c1 [Example 260] | 126 to 1000
14 | O=C(CCCCc1ccc(Cl)c(CNC2(C(=O)N3CCN(C4CC4)c4ccccc43)CC2)c1)NC[C@H](O)[C@@H](O)[C@H](O)[C@H](O)CO [Example 263] | 1260 to 50100
15 | O=C(NC[C@@H](O)[C@H](O)[C@@H](O)[C@@H](O)CO)C(CCCc1cc(Cl)c(CN2CSC[C@H]2C(=O)N2CCN(C3CC3)c3ccccc32)cc1Cl)C(=O)NC[C@@H](O)[C@H](O)[C@@H](O)[C@@H](O)CO [Example 174, 2-(3-(2,5-dichloro-4-(((R)-4-(4-cyclopropyl-1,2,3,4-tetrahydroquinoxaline-1-carbonyl)thiazolidin-3-yl)methyl)phenyl)propyl)-N1,N3-bis((2R,3S,4S,5S)-2,3,4,5,6-pentahydroxyhexyl)malonamide] | 1260 to 50100
16 | O=C(NCCCCc1cc(Cl)c(OCC2(C(=O)N3CCN(C4CC4)c4ccccc43)CC2)cc1Cl)NC[C@H](O)[C@@H](O)[C@H](O)[C@H](O)CO [Example 251] | 126 to 1000

Same assay, conditions: pEC50 Human TGR5, HEK293 cells stably expressing human TGR5, 30 min at 37 C, 0.05 nM to 10 μM

Row | EC50 [nM] | SMILES
17 | 126 to 1000 | O=C(O)CN(C[C@H](O)[C@@H](O)[C@H](O)[C@H](O)CO)C(=O)CCCCc1cc(Cl)c(CN2CSC[C@H]2C(=O)N2CCN(C3CC3)c3ccccc32)cc1Cl [Example 226]
